From PMC4915074 (Nature communications, 2013) come the findings set out here.

The experiment relates to VEGF. Nature of the experiment: VEGF gene expression in THP1 cells by quantitative real-time PCR. In kind it is cell-based, human. The following applies: 10 ng/mL (1.66 nM), 2 h, vs vehicle. A general note: Real-time PCR tracks product formation cycle by cycle.

As to relaxin, the “increase in relative expression of VEGF mRNA” value turned out to be 2.4 fold.
